Patent US7629332B2, “Nitrophenyl mustard and nitrophenylaziridine alcohols and their corresponding phosphates and their use as targeted cytotoxic agents” (Auckland Uniservices Limited, priority 2003, dated 2009)

Legend:
WiDr (NTR+ve) = assay: Cell proliferation (sulphorhodamine B) IC50, NTR-transfected WiDr human colon cells; format: cell-based; conditions: for WiDr WT:NTR IC50 Ratio: 4 h, sensitivity ratio for NTR expression; for IC50: WiDr, 4 h drug exposure, growth 5 further days
A549 (P450R+ve) = assay: Cell proliferation (sulphorhodamine B) IC50, P450R-transfected A549 human lung cells, anoxia vs 20% O2; format: cell-based; conditions: for A549 (P450R+ve) 20% O2/anoxia IC50 Ratio: 4 h, sensitivity ratio for hypoxia; for IC50: A549, 4 h drug exposure under 0% oxygen
in vivo = conditions: CD-1 nude, mouse, ip

Question: Which results are given for `O=C(NCCCO)c1cc(N(CCCl)CCCl)c([N+](=O)[O-])cc1[N+](=O)[O-]` [IIa-3, N-(3-Hydroxypropyl)-5-[bis(2-Chloroethyl)Amino]-2,4-Dinitrobenzamide]?
Answer: WiDr WT:NTR IC50 Ratio (WiDr (NTR+ve)): 36; IC50 (WiDr (NTR+ve)): 47 µM; A549 (P450R+ve) 20% O2/anoxia IC50 Ratio (A549 (P450R+ve)): 23; IC50 (A549 (P450R+ve)): 54 µM

Question: For `O=C(NCCO)c1cc(N(CCBr)CCBr)c([N+](=O)[O-])cc1[N+](=O)[O-]` [IIa-7, N-(2-Hydroxyethyl)-5-[Bis(2-Bromoethyl)Amino]-2,4-Dinitrobenzamide], which “WiDr WT:NTR IC50 Ratio” value (WiDr (NTR+ve)) is on record?
Answer: 99

Question: What about the IC50 (WiDr (NTR+ve)) of the same compound?
Answer: 1.5 µM

Question: And the “A549 (P450R+ve) 20% O2/anoxia IC50 Ratio” value (A549 (P450R+ve))?
Answer: 49

Question: And the IC50 (A549 (P450R+ve))?
Answer: 6.7 µM

Question: For `O=C(NCCCO)c1cc(N(CCBr)CCBr)c([N+](=O)[O-])cc1[N+](=O)[O-]` [IIa-8, N-(3-Hydroxypropyl)-5-[Bis(2-Bromoethyl)Amino]-2,4-Dinitrobenzamide], which “WiDr WT:NTR IC50 Ratio” value (WiDr (NTR+ve)) is on record?
Answer: 224

Question: And the IC50 (WiDr (NTR+ve))?
Answer: 1.6 µM

Question: And the “A549 (P450R+ve) 20% O2/anoxia IC50 Ratio” value (A549 (P450R+ve))?
Answer: 6.6

Question: And the IC50 (A549 (P450R+ve))?
Answer: 23 µM

Question: With `O=C(NCCCCCO)c1cc(N(CCBr)CCBr)c([N+](=O)[O-])cc1[N+](=O)[O-]` [IIa-10, N-(5-Hydroxypentyl)-5-[Bis(2-Bromoethyl)Amino]-2,4-Dinitrobenzamide] as the compound, how does the “WiDr WT:NTR IC50 Ratio” value (WiDr (NTR+ve)) read?
Answer: 22

Question: What about the IC50 (WiDr (NTR+ve)) of the same compound?
Answer: 10 µM

Question: Which “WiDr WT:NTR IC50 Ratio” value (WiDr (NTR+ve)) does the source give for `O=C(NCCCCCCO)c1cc(N(CCBr)CCBr)c([N+](=O)[O-])cc1[N+](=O)[O-]` [IIa-11, N-(6-Hydroxyhexyl)-5-[Bis(2-Bromoethyl)Amino]-2,4-Dinitrobenzamide] here?
Answer: 9

Question: What about the IC50 (WiDr (NTR+ve)) of the same compound?
Answer: 11 µM

Question: Which “WiDr WT:NTR IC50 Ratio” value (WiDr (NTR+ve)) does the source give for `O=C(NCCO)c1cc(N(CCI)CCI)c([N+](=O)[O-])cc1[N+](=O)[O-]` [IIa-14, 5-[Bis(2-Iodoethyl)Amino]-N-(2-Hydroxyethyl)-2,4-Dinitrobenzamide] here?
Answer: 49

Question: And the IC50 (WiDr (NTR+ve))?
Answer: 2.9 µM

Question: And the “A549 (P450R+ve) 20% O2/anoxia IC50 Ratio” value (A549 (P450R+ve))?
Answer: 4.5

Question: And the IC50 (A549 (P450R+ve))?
Answer: 13 µM

Question: Which results are given for `O=C(NCCCCO)c1cc([N+](=O)[O-])cc([N+](=O)[O-])c1N(CCCl)CCCl` [IIb-4, 2-[Bis(2-Chloroethyl)Amino]-N-(4-Hydroxybutyl)-3,5-Dinitrobenzamide]?
Answer: WiDr WT:NTR IC50 Ratio (WiDr (NTR+ve)): 18; IC50 (WiDr (NTR+ve)): 14 µM

Question: Which results are given for `O=C(NCCCCCO)c1cc([N+](=O)[O-])cc([N+](=O)[O-])c1N(CCCl)CCCl` [IIb-5, 2-[Bis(2-Chloroethyl)Amino]-N-(5-Hydroxypentyl)-3,5-Dinitrobenzamide]?
Answer: WiDr WT:NTR IC50 Ratio (WiDr (NTR+ve)): 19; IC50 (WiDr (NTR+ve)): 13 µM

Question: What does the source list for `O=C(NCCCCO)c1cc([N+](=O)[O-])cc([N+](=O)[O-])c1N(CCBr)CCBr` [IIb-9, 2-[Bis(2-Bromoethyl)Amino]-N-(4-Hydroxybutyl)-3,5-Dinitrobenzamide]?
Answer: WiDr WT:NTR IC50 Ratio (WiDr (NTR+ve)): 5; IC50 (WiDr (NTR+ve)): 0.9 µM; A549 (P450R+ve) 20% O2/anoxia IC50 Ratio (A549 (P450R+ve)): 20; IC50 (A549 (P450R+ve)): 1.4 µM

Question: Which “WiDr WT:NTR IC50 Ratio” value (WiDr (NTR+ve)) does the source give for `O=C(NCCCCCO)c1cc([N+](=O)[O-])cc([N+](=O)[O-])c1N(CCBr)CCBr` [IIb-10, 2-[Bis(2-Bromoethyl)Amino]-N-(5-Hydroxypentyl)-3,5-Dinitrobenzamide] here?
Answer: 2

Question: And the IC50 (WiDr (NTR+ve))?
Answer: 0.9 µM

Question: And the “A549 (P450R+ve) 20% O2/anoxia IC50 Ratio” value (A549 (P450R+ve))?
Answer: 11

Question: What about the IC50 (A549 (P450R+ve)) of the same compound?
Answer: 2.3 µM

Question: Which “WiDr WT:NTR IC50 Ratio” value (WiDr (NTR+ve)) does the source give for `O=C(NCCCCCCO)c1cc([N+](=O)[O-])cc([N+](=O)[O-])c1N(CCBr)CCBr` [IIb-11, 2-[Bis(2-Bromoethyl)Amino]-N-(6-Hydroxyhexyl)-3,5-Dinitrobenzamide] here?
Answer: 2

Question: And the IC50 (WiDr (NTR+ve))?
Answer: 1 µM

Question: What about the “A549 (P450R+ve) 20% O2/anoxia IC50 Ratio” value (A549 (P450R+ve)) of the same compound?
Answer: 4.5

Question: And the IC50 (A549 (P450R+ve))?
Answer: 6.6 µM

Question: Which results are given for `O=C(NCCO)c1c([N+](=O)[O-])ccc(N(CCBr)CCBr)c1[N+](=O)[O-]` [IIc-7, 3-[Bis(2-Bromoethyl)Amino]-N-(2-Hydroxyethyl)-2,6-Dinitrobenzamide]?
Answer: WiDr WT:NTR IC50 Ratio (WiDr (NTR+ve)): 46; IC50 (WiDr (NTR+ve)): 10 µM; A549 (P450R+ve) 20% O2/anoxia IC50 Ratio (A549 (P450R+ve)): 40; IC50 (A549 (P450R+ve)): 3.9 µM

Question: Which results are given for `O=C(NCCCO)c1c([N+](=O)[O-])ccc(N(CCBr)CCBr)c1[N+](=O)[O-]` [IIc-8, 3-[Bis(2-Bromoethyl)Amino]-N-(3-Hydroxypropyl)-2,6-Dinitrobenzamide]?
Answer: WiDr WT:NTR IC50 Ratio (WiDr (NTR+ve)): 70; IC50 (WiDr (NTR+ve)): 5 µM; A549 (P450R+ve) 20% O2/anoxia IC50 Ratio (A549 (P450R+ve)): 24; IC50 (A549 (P450R+ve)): 6.6 µM

Question: For `O=C(NCCCCO)c1c([N+](=O)[O-])ccc(N(CCBr)CCBr)c1[N+](=O)[O-]` [IIc-9, 3-[Bis(2-Bromoethyl)Amino]-N-(4-Hydroxybutyl)-2,6-Dinitrobenzamide], which “WiDr WT:NTR IC50 Ratio” value (WiDr (NTR+ve)) is on record?
Answer: 6

Question: What about the IC50 (WiDr (NTR+ve)) of the same compound?
Answer: 31 µM

Question: What about the “A549 (P450R+ve) 20% O2/anoxia IC50 Ratio” value (A549 (P450R+ve)) of the same compound?
Answer: 21

Question: What about the IC50 (A549 (P450R+ve)) of the same compound?
Answer: 7.3 µM

Question: For `O=C(NCCCOP(=O)(O)O)c1cc(N(CCBr)CCBr)c([N+](=O)[O-])cc1[N+](=O)[O-]` [Ia-8P, 3-[[5-[Bis(2-Bromoethyl)Amino]-2,4-Dinitrobenzoyl]Amino]Propyl Dihydrogen Phosphate], which MTD (in vivo) is on record?
Answer: 1000 µmol/kg

Question: Which MTD (in vivo) does the source give for `O=C(NCCOP(=O)(O)O)c1cc([N+](=O)[O-])cc([N+](=O)[O-])c1N(CCCl)CCCl` [Ib-2P, 2-[[2-[Bis(2-Chloroethyl)Amino]-3,5-Dinitrobenzoyl]Amino]Ethyl Dihydrogen Phosphate] here?
Answer: 237 µmol/kg

Question: Which MTD (in vivo) does the source give for `O=C(NCCCOP(=O)(O)O)c1c([N+](=O)[O-])ccc(N(CCBr)CCBr)c1[N+](=O)[O-]` [Ic-8P, 3-({3-[Bis(2-Bromoethyl)Amino]-2,6-Dinitrobenzoyl}Amino)Propyl Dihydrogen Phosphate] here?
Answer: 562 µmol/kg
